{"source": "patent US8927717B1", "about": "“Thiochromeno[2,3-c]quinolin-12-one derivatives, preparation method and application thereof” (National Defense Medical Center, priority 2014, dated 2015)", "assay_type_in_all_cases": "cell-based", "key": {"HL-60(TB)": {"system": "HL-60(TB)"}, "K-562": {"system": "K-562"}, "MOLT-4": {"system": "MOLT-4"}, "RPMI-8226": {"system": "RPMI-8226"}, "SR": {"system": "SR"}, "HOP-62": {"system": "HOP-62"}, "NCI-H226": {"system": "NCI-H226"}, "NCI-H23": {"system": "NCI-H23", "details": "Non-small cell lung cancer; 10^−5 molar; 48 hours; SRB"}, "NCI-H460": {"system": "NCI-H460"}, "NCI-H522": {"system": "NCI-H522"}, "COLO 205": {"system": "COLO 205"}, "HCT-116": {"system": "HCT-116"}, "HT29": {"system": "HT29"}, "KM12": {"system": "KM12", "test": "cells"}, "SW-620": {"system": "SW-620"}, "SF-268": {"system": "SF-268"}, "SNB-19": {"system": "SNB-19"}, "U251": {"system": "U251"}, "LOX IMVI": {"system": "LOX IMVI"}, "[1]": {"details": "Leukemia, 10^−5 molar, 48 hours, SRB"}, "[2]": {"details": "Homo sapiens, HOP-62, five dose"}, "[3]": {"details": "Non-small cell lung cancer, 10^−5 molar, 48 hours, SRB"}, "[4]": {"details": "Homo sapiens, NCI-H226, five dose"}, "[5]": {"details": "Homo sapiens, NCI-H460, five dose"}, "[6]": {"details": "Homo sapiens, NCI-H522, five dose"}, "[7]": {"details": "Colon cancer, 10^−5 molar, 48 hours, SRB"}, "[8]": {"details": "Homo sapiens, COLO 205, five dose"}, "[9]": {"details": "Homo sapiens, HCT-116, five dose"}, "[10]": {"details": "Homo sapiens, HT-29, HT29, five dose"}, "[11]": {"details": "Homo sapiens, SW-620, five dose"}, "[12]": {"details": "CNS cancer, 10^−5 molar, 48 hours, SRB"}, "[13]": {"details": "Homo sapiens, SNB-19, five dose"}, "[14]": {"details": "Homo sapiens, U-251, U251, five dose"}, "[15]": {"details": "Homo sapiens, LOX IMVI, five dose"}}, "data": [{"compound": "CN(C)CCNc1nc2ccccc2c2c(=O)c3cc(Cl)ccc3sc12", "note": "[Compound N7, 10-Chloro-6-((2-(dimethylamino)ethyl)amino)-12H-thiochromeno[2,3-c]quinolin-12-one]", "values": [{"measurement": "TGI", "setting": "HL-60(TB); HL-60(TB), five dose", "result": 3.49, "unit": "µM"}, {"measurement": "GI50", "setting": "HL-60(TB); Homo sapiens, HL-60(TB), five dose", "result": 1.76, "unit": "µM"}, {"measurement": "CC50", "setting": "HL-60(TB); Homo sapiens, HL-60(TB), five dose, read-out: LC50 (the source's name)", "result": 6.95, "unit": "µM"}, {"measurement": "Growth percent HL-60(TB)", "setting": "HL-60(TB); [1]", "result": "−47.40", "unit": "%"}, {"measurement": "GI50", "setting": "K-562; Homo sapiens, K562, K-562, five dose", "result": 1.33, "unit": "µM"}, {"measurement": "CC50", "setting": "K-562; Homo sapiens, K562, K-562, five dose, read-out: LC50 (the source's name)", "result": 6.74, "unit": "µM"}, {"measurement": "TGI", "setting": "K-562; K-562, five dose", "result": 3.00, "unit": "µM"}, {"measurement": "Growth percent K-562", "setting": "K-562; [1]", "result": "−58.60", "unit": "%"}, {"measurement": "GI50", "setting": "MOLT-4; Homo sapiens, MOLT-4, five dose", "result": 1.71, "unit": "µM"}, {"measurement": "CC50", "setting": "MOLT-4; Homo sapiens, MOLT-4, five dose, read-out: LC50 (the source's name)", "result": 6.74, "unit": "µM"}, {"measurement": "Growth percent MOLT-4", "setting": "MOLT-4; [1]", "result": "−56.34", "unit": "%"}, {"measurement": "TGI", "setting": "MOLT-4; MOLT-4, five dose", "result": 3.40, "unit": "µM"}, {"measurement": "GI50", "setting": "RPMI-8226; Homo sapiens, RPMI-8226, five dose", "result": 1.76, "unit": "µM"}, {"measurement": "CC50", "setting": "RPMI-8226; Homo sapiens, RPMI-8226, five dose, read-out: LC50 (the source's name)", "result": 7.69, "unit": "µM"}, {"measurement": "Growth percent RPMI-8226", "setting": "RPMI-8226; [1]", "result": "−37.68", "unit": "%"}, {"measurement": "TGI", "setting": "RPMI-8226; RPMI-8226, five dose", "result": 3.68, "unit": "µM"}, {"measurement": "GI50", "setting": "SR; Homo sapiens, SR, five dose", "result": 1.7, "unit": "µM"}, {"measurement": "LC50 (50% lethal concentration)", "setting": "SR; Homo sapiens, SR, five dose", "result": 8.14, "unit": "µM"}, {"measurement": "Growth percent SR", "setting": "SR; [1]", "result": "−34.76", "unit": "%"}, {"measurement": "TGI", "setting": "SR; SR, five dose", "result": 3.73, "unit": "µM"}, {"measurement": "TGI", "setting": "HOP-62; HOP-62, five dose", "result": 2.92, "unit": "µM"}, {"measurement": "GI50", "setting": "HOP-62; [2]", "result": 1.54, "unit": "µM"}, {"measurement": "LC50 (lethal concentration 50)", "setting": "HOP-62; [2]", "result": 5.56, "unit": "µM"}, {"measurement": "Growth percent HOP-62", "setting": "HOP-62; [3]", "result": 56.42, "unit": "%"}, {"measurement": "GI50", "setting": "NCI-H226; [4]", "result": 1.84, "unit": "µM"}, {"measurement": "LC50 (concentration giving 50% net cell kill)", "setting": "NCI-H226; [4]", "result": 24.3, "unit": "µM"}, {"measurement": "TGI", "setting": "NCI-H226; NCI-H226, five dose", "result": 4.38, "unit": "µM"}, {"measurement": "Growth percent NCI-H226", "setting": "NCI-H226; [3]", "result": 58.08, "unit": "%"}, {"measurement": "Growth percent NCI-H23", "setting": "NCI-H23", "result": 72.59, "unit": "%"}, {"measurement": "GI50", "setting": "NCI-H460; [5]", "result": 1.76, "unit": "µM"}, {"measurement": "LC50", "setting": "NCI-H460; [5]", "result": 6.5, "unit": "µM"}, {"measurement": "TGI", "setting": "NCI-H460; NCI-H460, five dose", "result": 3.38, "unit": "µM"}, {"measurement": "Growth percent NCI-H460", "setting": "NCI-H460; [3]", "result": "−71.14", "unit": "%"}, {"measurement": "GI50", "setting": "NCI-H522; [6]", "result": 1.59, "unit": "µM"}, {"measurement": "LC50 (concentration causing 50% net cell kill)", "setting": "NCI-H522; [6]", "result": 5.9, "unit": "µM"}, {"measurement": "TGI", "setting": "NCI-H522; NCI-H522, five dose", "result": 3.07, "unit": "µM"}, {"measurement": "Growth percent NCI-H522", "setting": "NCI-H522; [3]", "result": "−8.99", "unit": "%"}, {"measurement": "TGI", "setting": "COLO 205; COLO 205, five dose", "result": 3.17, "unit": "µM"}, {"measurement": "Growth percent COLO 205", "setting": "COLO 205; [7]", "result": "−82.85", "unit": "%"}, {"measurement": "GI50", "setting": "COLO 205; [8]", "result": 1.66, "unit": "µM"}, {"measurement": "LC50", "setting": "COLO 205; [8]", "result": 6.05, "unit": "µM"}, {"measurement": "Growth percent HCT-116", "setting": "HCT-116; [7]", "result": "−96.59", "unit": "%"}, {"measurement": "TGI", "setting": "HCT-116; HCT-116, five dose", "result": 3.18, "unit": "µM"}, {"measurement": "GI50", "setting": "HCT-116; [9]", "result": 1.57, "unit": "µM"}, {"measurement": "LC50 (concentration killing 50% of cells)", "setting": "HCT-116; [9]", "result": 6.45, "unit": "µM"}, {"measurement": "Growth percent HT29", "setting": "HT29; [7]", "result": "−84.24", "unit": "%"}, {"measurement": "TGI", "setting": "HT29; HT29, five dose", "result": 3.36, "unit": "µM"}, {"measurement": "GI50", "setting": "HT29; [10]", "result": 1.65, "unit": "µM"}, {"measurement": "LC50 (concentration killing 50% of cells)", "setting": "HT29; [10]", "result": 6.88, "unit": "µM"}, {"measurement": "Growth percent KM12", "setting": "KM12; [7]", "result": "−77.07", "unit": "%"}, {"measurement": "GI50", "setting": "KM12; Homo sapiens, KM12, five dose", "result": 1.78, "unit": "µM"}, {"measurement": "LC50", "setting": "KM12; Homo sapiens, KM12, five dose", "result": 6.03, "unit": "µM"}, {"measurement": "TGI", "setting": "KM12; KM12, five dose", "result": 3.28, "unit": "µM"}, {"measurement": "Growth percent SW-620", "setting": "SW-620; [7]", "result": "−67.82", "unit": "%"}, {"measurement": "GI50", "setting": "SW-620; [11]", "result": 1.71, "unit": "µM"}, {"measurement": "LC50", "setting": "SW-620; [11]", "result": 6.36, "unit": "µM"}, {"measurement": "TGI", "setting": "SW-620; SW-620, five dose", "result": 3.29, "unit": "µM"}, {"measurement": "Growth percent SF-268", "setting": "SF-268; [12]", "result": 39.05, "unit": "%"}, {"measurement": "GI50", "setting": "SF-268; Homo sapiens, SF-268, five dose", "result": 1.57, "unit": "µM"}, {"measurement": "CC50", "setting": "SF-268; Homo sapiens, SF-268, five dose, read-out: LC50 (the source's name)", "result": 6.35, "unit": "µM"}, {"measurement": "TGI", "setting": "SF-268; SF-268, five dose", "result": 3.16, "unit": "µM"}, {"measurement": "Growth percent SNB-19", "setting": "SNB-19; [12]", "result": 55.44, "unit": "%"}, {"measurement": "GI50", "setting": "SNB-19; [13]", "result": 1.54, "unit": "µM"}, {"measurement": "LC50 (concentration killing 50% of cells)", "setting": "SNB-19; [13]", "result": 6.1, "unit": "µM"}, {"measurement": "TGI", "setting": "SNB-19; SNB-19, five dose", "result": 3.07, "unit": "µM"}, {"measurement": "Growth percent U251", "setting": "U251; [12]", "result": "−39.75", "unit": "%"}, {"measurement": "GI50", "setting": "U251; [14]", "result": 1.48, "unit": "µM"}, {"measurement": "LC50", "setting": "U251; [14]", "result": 5.44, "unit": "µM"}, {"measurement": "TGI", "setting": "U251; U251, five dose", "result": 2.84, "unit": "µM"}, {"measurement": "GI50", "setting": "LOX IMVI; [15]", "result": 1.68, "unit": "µM"}, {"measurement": "LC50", "setting": "LOX IMVI; [15]", "result": 6.24, "unit": "µM"}, {"measurement": "TGI", "setting": "LOX IMVI; LOX IMVI, five dose", "result": 3.24, "unit": "µM"}, {"measurement": "Growth percent LOX IMVI", "setting": "LOX IMVI; Melanoma, 10^−5 molar, 48 hours, SRB", "result": "−84.12", "unit": "%"}]}]}
